Tests used:
K562/Adr = assay: Antiproliferative activity against human Adriamycin-resistant K562/Adr cells assessed as inhibition of cell growth at 30 uM incubated for 48 hrs by MTT assay; assay type: functional
K562 = assay: Antiproliferative activity against human K562 cells assessed as inhibition of cell growth incubated for 48 hrs by MTT assay; assay type: functional, cell-based; settings: K562, 48 h
Bcr/Abl fusion protein [1] = target: Bcr/Abl fusion protein (Homo sapiens, UniProt P00519); assay: Inhibition of wild type Bcr-Abl (unknown origin) incubated for 1 hr in presence of ATP by ADP-Glo kinase assay; assay type: protein assay
Bcr/Abl fusion protein [2] = target: Bcr/Abl fusion protein (Homo sapiens, UniProt P00519, T315I); assay: Inhibition of Bcr-Abl T315I mutant (unknown origin) incubated for 1 hr in presence of ATP by ADP-Glo kinase assay; assay type: protein assay
BaF3 = assay: Antiproliferative activity against mouse BaF3 cells expressing Bcr-Abl T315I mutant assessed as inhibition of cell growth at 30 uM incubated for 72 hrs by CellTiter-Glo luminescent assay; assay type: functional

Structure (SMILES)	inhibition at 30 µM (K562/Adr) [%]	IC50 (K562) [µM]	IC50 (Bcr/Abl fusion protein [1]) [µM]	IC50 (Bcr/Abl fusion protein [2]) [µM]	inhibition at 30 µM (BaF3) [%]
O=C(Nc1ccc(Cl)c(C(F)(F)F)c1)[C@@H]1C[C@H](n2cc(-c3cncc(C(=O)N4CCOCC4)c3)nn2)CN1	25.6	28.8	0.0601	0.801	–
CC(=O)Nc1nc2ccc(-c3cn([C@@H]4CN[C@H](C(=O)Nc5ccc(Cl)c(C(F)(F)F)c5)C4)nn3)nc2s1	–	10	0.0235	0.0596	44.8
CC(C)(C)OC(=O)N1C[C@@H](n2cc(-c3ccc4c(N)n[nH]c4c3)nn2)C[C@H]1C(=O)Nc1ccc(Br)cc1	23	3.71	0.05	0.237	20.1
Nc1n[nH]c2cc(-c3cn([C@@H]4CN[C@H](C(=O)Nc5ccc(Br)cc5)C4)nn3)ccc12	26.8	10.3	0.0436	0.31	–
Nc1nc2ccc(-c3cn([C@@H]4CN[C@H](C(=O)Nc5ccc(F)c(F)c5)C4)nn3)nc2s1	27.4	33.2	0.129	1.59	–
O=C(Nc1n[nH]c2cc(-c3cn([C@@H]4CN[C@H](C(=O)Nc5ccc(Cl)cc5Cl)C4)nn3)ccc12)C1CC1	43.3	5.34	0.00083	0.2	27.6
CC(=O)Nc1nc2ccc(-c3cn([C@@H]4CN[C@H](C(=O)Nc5ccc(Cl)cc5Cl)C4)nn3)nc2s1	36.1	9.67	0.0048	0.388	39.5
CC(=O)Nc1nc2ccc(-c3cn([C@@H]4CN[C@H](C(=O)Nc5ccc(Br)cc5)C4)nn3)nc2s1	32	5.02	0.00699	0.169	40
CC(=O)Nc1nc2ccc(-c3cn([C@@H]4CN[C@H](C(=O)Nc5ccc(F)c(F)c5)C4)nn3)nc2s1	38.4	63	0.202	1.89	–
O=C(Nc1ccc(-c2cn([C@@H]3CN[C@H](C(=O)Nc4ccc(Cl)c(C(F)(F)F)c4)C3)nn2)cn1)C1CC1	44.3	8.77	0.00065	0.338	36.4
CC(C)(C)OC(=O)N1C[C@@H](n2cc(-c3ccc4c(N)n[nH]c4c3)nn2)C[C@H]1C(=O)Nc1ccc(Cl)c(C(F)(F)F)c1	37.1	10.5	0.0219	0.15	53.8
CC(=O)Nc1n[nH]c2cc(-c3cn([C@@H]4CN[C@H](C(=O)Nc5ccc(Cl)c(C(F)(F)F)c5)C4)nn3)ccc12	23.4	15.5	0.0282	0.121	21.8
O=C(Nc1nc2ccc(-c3cn([C@@H]4CN[C@H](C(=O)Nc5ccc(Cl)c(C(F)(F)F)c5)C4)nn3)nc2s1)C1CC1	10.4	16.2	0.0246	0.11	78.8
CC(C)(C)C(=O)Nc1ccc(-c2cn([C@@H]3CN[C@H](C(=O)Nc4ccc(Cl)c(C(F)(F)F)c4)C3)nn2)cn1	19.1	43.8	0.0415	3.44	–
CC(C)(C)OC(=O)N1C[C@@H](n2cc(-c3ccc4c(N)n[nH]c4c3)nn2)C[C@H]1C(=O)Nc1ccc(Cl)cc1Cl	25.6	12.2	0.0606	1.88	28.7
CN(C)CCNC(=O)c1cncc(-c2cn([C@@H]3CN[C@H](C(=O)Nc4ccc(Cl)c(C(F)(F)F)c4)C3)nn2)c1	14.5	21	0.0292	0.349	21.8
